Test results: patent US10959993B2, “Combination of Bcl-2 inhibitor and MEK inhibitor for the treatment of cancer” (Genentech, Inc., priority 2015, dated 2021)

Experiments:
AML cell lines [1] = assay: Reverse phase protein array (RPPA) of sensitive v. resistant cell lines; type: cell-based; set-up: p16INK4a Mean. Res / p16INK4a Mean. Sens / p53 Mean. Res / p53 Mean. Sens / Bax Mean. Res / Bax Mean. Sens / Bim Mean. Res / Bim Mean. Sens / bRaf (T401) Mean. Res / bRaf (T401) Mean. Sens / Bcl-2 Mean. Res / Bcl-2 Mean. Sens: unit not given here
Protocol: (§1) Representative proteins that are differentially expressed between combination-sensitive and combination-resistant cells were shown. (FIG. 3E) The Bcl-2:BIM complex was measured by the MSD ELISA assay in AML cell lines, untreated, treated with venetoclax alone, treated with cobimetinib alone, or treated with cobimetinib/venetoclax at 1×IC50 values for 4 hrs.
(§2) Ongoing analysis of pharmacodynamic markers include transcriptome assessment by RNA sequencing, functional proteomics by reverse phase protein array (RPPA), and quantification of Bcl-2:BIM and MCL-1:BIM complexes using the electrochemiluminescent ELISA assay (Meso Scale Discovery, MSD-ELISA). RPPA is a high-throughput technology that performs protein assays on thousands of samples simultaneously. This protein array platform measures levels of protein expression, as well as protein modifications such as phosphorylation.

Bcl-2:BIM complex = molecular target: T1, Bcl-2:BIM complex (Homo sapiens, UniProt P10415); assay: MSD ELISA of Bcl-2:BIM complex; type: cell-based; details: 1×IC50, 4 hrs, preliminary MSD data
T1 construct: endogenous in cells; host or cells: AML cell lines (OCI-AML3 is the only one named for this read-out)
T1 sequence (P10415 whole entry, one chain of several): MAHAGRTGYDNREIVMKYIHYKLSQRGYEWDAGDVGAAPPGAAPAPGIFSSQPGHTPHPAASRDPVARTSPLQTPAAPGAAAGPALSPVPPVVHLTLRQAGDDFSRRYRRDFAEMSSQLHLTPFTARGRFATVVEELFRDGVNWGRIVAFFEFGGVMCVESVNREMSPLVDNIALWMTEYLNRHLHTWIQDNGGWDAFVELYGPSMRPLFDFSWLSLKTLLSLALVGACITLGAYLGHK
Protocol: as §1, §2
Representative proteins that are differentially expressed in sensitive and resistant cell lines to the combination. (FIGS. 3A, 3B, 3C, and 3D). […] (FIG. 3E).

[2] = tested on: AML stem/progenitor cells from primary AML; assay: Mass cytometry (CyTOF) of intracellular signaling proteins; type: cell-based
Protocol: Mononuclear cells from primary AML were treated with cobimetinib at 1.0 μM for 2 hrs followed by 10 minutes plus or minus stimulation with G-CSF (100 ng/ml). The SPADE tree was generated using markers including CD7, CD117, CD123, CD64, CD34, CD26, CD45, TIM3, CD33, CD19, CD56, CD2, CD15, CD41, CD38, CD166, CD3, CD90, CD11b, CD135 and HLA-DR. FIG. 4A depicts representative markers from among those markers tested. The grey-scale color represents the expression levels of each indicated protein. (FIG. 4A) Bcl-2 family members at baseline in the gated stem/progenitor AML cell populations (AML4295468: CD34+CD38+CD123+CD33+; AML 4366894: CD34+CD38-CD123+CD33+). (FIG. 4B) The median intensity of each protein in the gated cell populations mentioned above. (FIG. 4C) The intracellular signaling protein activation in the gated populations mentioned above.
We next investigated signaling patterns and Bcl-2 family protein expression in AML stem/progenitor cells using a 34-antibody panel and time-of-flight mass cytometry (CyTOF). CyTOF is a variation of flow cytometry in which antibodies are labeled with heavy metal ion tags rather than fluorochromes. Readout is by time-of-flight mass spectrometry. This allows for the combination of many more antibody specificities in single samples, without significant spillover between channels. […] (FIG. 4A). […] To test the efficacy of both compounds in vivo, we injected NSG mice with genetically engineered OCI-AML3/Luc/GFP cells. […] (FIGS. 5A and 5B). To further explore the anti-leukemia efficacy of both compounds, we injected NSGS mice with genetically engineered […] cells.

OCI-AML3/Luc/GFP cells = assay: OCI-AML3/Luc/GFP AML model in NSG mice; type: in vivo; details: compared to controls, more prominently in cobimetinib single agent and co-treated mice
Protocol: (§3) OCI-AML3/Luc/GFP cells (1×10^6 per mouse) were injected intravenously into NSG mice. (FIG. 5A) The luciferase intensity was quantified by serial bioluminescence imaging from 8 representative mice from 4 groups at week 5 post injection. (FIG. 5B) Overall survival rate in each group was estimated by the Kaplan-Meier method. 1×10^6 MOLM13-luci-GFP cells were injected into NSGS mice. Leukemia engraftment was confirmed on day 3 using Bioluminescence imaging (BLI). Mice were orally dosed daily with cobimetinib (10 mg/kg) or venetoclax (100 mg/kg) or in combination for 14 days. Luciferase intensity was shown on day 17 (FIG. 5C). Human CD45 engraftment in BM and spleen was determined by CyTOF. (FIG. 5D). The viable cell count was measured using Vi-Cell. (FIG. 5E). * *P: 0.01, ***P: 0.001.
(§4) We next investigated signaling patterns and Bcl-2 family protein expression in AML stem/progenitor cells using a 34-antibody panel and time-of-flight mass cytometry (CyTOF). CyTOF is a variation of flow cytometry in which antibodies are labeled with heavy metal ion tags rather than fluorochromes. Readout is by time-of-flight mass spectrometry. This allows for the combination of many more antibody specificities in single samples, without significant spillover between channels. […]

AML cell lines [3] = assay: CellTiter-Glo in vitro cytotoxicity / growth inhibition, 72 hrs; type: cell-based; details: MOLM14, OCI-AML3, NB4 and THP1
Protocol: (FIG. 1A) The AML cell lines were treated with cobimetinib or venetoclax at 0.001, 0.01, 0.1 and 1.0 μM for 72 hrs. Calcusyn software was used to calculate the IC50 values and combination index (CI) based on the luminescent intensity that correlated with number of viable cells determined by the CellTiter-Glo assay.
The activity of 4-(4-{[2-(4-chlorophenyl)-4,4-dimethylcyclohex-1-en-1-yl]methyl}piperazin-1-yl)-N-({3-nitro-4-[(tetrahydro-2H-pyran-4-ylmethyl)amino]phenyl}sulfonyl)-2-(1H-pyrrolo[2,3-b]pyridin-5-yloxy)benzamide (ABT-199, or venetoclax) and [3,4-Difluoro-2-(2-fluoro-4-iodoanilino)phenyl]{3-hydroxy-3-[(2S)-piperidin-2-yl]azetidin-1-yl}methanone (cobimetinib) was examined in a panel of myeloid leukemia cell lines with diverse genetic alterations.

primary AML blasts = assay: Long-term culture of primary AML blasts: apoptosis and growth inhibition by flow cytometry; type: cell-based; details: AML 4366894
Protocol: (FIG. 2A) Primary AML peripheral blood mononuclear cells were cultured in serum-Free Expansion Medium (SFEM) supplemented with BIT 9500 Serum Substitute and cytokines including stem cell factor (100 ng/ml), Flt3 ligand (50 ng/ml), IL-3 (20 ng/ml) and G-CSF (20 ng/ml) as well as SRI (1 μM). After culture for 5 days, cells were stained with CD45-PE, Annexin-V-APC and DAPI−. The apoptotic leukemia blasts (CD45dimAnnexin-V+) were determined by flow cytometry. Results were expressed as percentage of specific apoptosis calculated by the formula: 100×(% apoptosis of treated cells−% apoptosis of control cells)/(100−% apoptosis of control cells), or % growth inhibition of control using the viable cell counts determined by Annexin-/DAPI. […] MNCs isolated from patients with AML (100,000) or healthy donors (50,000) were plated in methylcellulose medium (1 mL/well; Cat. 04435; [sequence] Technologies Inc., Vancouver, BC, Canada) in triplicate per condition. Colonies were scored after 2 weeks of culture.

MOLM13-luci-GFP cells = assay: MOLM13-luci-GFP AML model in NSGS mice; type: in vivo; details: cobimetinib 10 mg/kg, venetoclax 100 mg/kg orally daily for 14 days, compared to controls, more prominently in venetoclax and co-treated mice
Protocol: as §3, §4

[4] = cell lines resistant to cobimetinib
[5] = cell lines sensitive to cobimetinib
[6] = cell lines resistant to venetoclax
[7] = cell lines sensitive to venetoclax

O=C(c1ccc(F)c(F)c1Nc1ccc(I)cc1F)N1CC(O)([C@@H]2CCCCN2)C1 [cobimetinib, [3,4-difluoro-2-(2-fluoro-4-iodoanilino)phenyl]{3-hydroxy-3-[(2S)-piperidin-2-yl]azetidin-1-yl}methanone]
Bax Mean. Res (AML cell lines [1]; [4]): 1.010 | Bim Mean. Res (AML cell lines [1]; [4]): 0.893 | ERK 1/2 (T202/Y204) Mean. Res (AML cell lines [1]; [4]): 1.073 | FLT3 (Y589/591) Mean. Res (AML cell lines [1]; [4]): 0.948 | PTEN (S380) Mean. Res (AML cell lines [1]; [4]): 1.049 | PTEN Mean. Res (AML cell lines [1]; [4]): 1.013 | RSK3 (T356/S360) Mean. Res (AML cell lines [1]; [4]): 0.859 | S6 (S235/236) Mean. Res (AML cell lines [1]; [4]): 0.748 | p16INK4a Mean. Res (AML cell lines [1]; [4]): 2.220 | p38MAP (T180/Y182) Mean. Res (AML cell lines [1]; [4]): 0.983 | p53 Mean. Res (AML cell lines [1]; [4]): 0.939 | Bax Mean. Sens (AML cell lines [1]; [5]): 1.307 | Bim Mean. Sens (AML cell lines [1]; [5]): 1.175 | ERK 1/2 (T202/Y204) Mean. Sens (AML cell lines [1]; [5]): 1.988 | FLT3 (Y589/591) Mean. Sens (AML cell lines [1]; [5]): 1.256 | PTEN (S380) Mean. Sens (AML cell lines [1]; [5]): 1.335 | PTEN Mean. Sens (AML cell lines [1]; [5]): 1.361 | RSK3 (T356/S360) Mean. Sens (AML cell lines [1]; [5]): 1.495 | S6 (S235/236) Mean. Sens (AML cell lines [1]; [5]): 1.174 | p16INK4a Mean. Sens (AML cell lines [1]; [5]): 1.184 | p38MAP (T180/Y182) Mean. Sens (AML cell lines [1]; [5]): 1.275 | p53 Mean. Sens (AML cell lines [1]; [5]): 1.373 | Bcl-2:BIM complex (Bcl-2:BIM complex; AML cell lines): but not cobimetinib disrupted | Bcl-2:BIM complex (Bcl-2:BIM complex; OCI-AML3 cells): accumulated | G-CSF-evoked p-STAT3/5 ([2]; AML 4295468, 1.0 μM for 2 hrs): only slightly reduced | SCF-induced p-AKT ([2]; AML 4295468, 1.0 μM for 2 hrs): only slightly reduced | basal and G-CSF- or SCF-stimulated p-ERK ([2]; AML 4295468, 1.0 μM for 2 hrs): efficiently down-regulated | G-CSF-induced p-STAT3/5 ([2]; AML 4366894, 1.0 μM for 2 hrs): not significantly changed | p-ERK ([2]; AML 4366894, 1.0 μM for 2 hrs): also reduced | phosphorylation of STATS pathway ([2]; primary AML, 1.0 μM for 2 hrs): increased phosphorylation | leukemia burden by bioluminescent imaging (BLI) (OCI-AML3/Luc/GFP cells): significantly reduced leukemia burden

CC1(C)CCC(CN2CCN(c3ccc(C(=O)NS(=O)(=O)c4ccc(NCC5CCOCC5)c([N+](=O)[O-])c4)c(Oc4cnc5[nH]ccc5c4)c3)CC2)=C(c2ccc(Cl)cc2)C1 [venetoclax, 4-(4-{[2-(4-chlorophenyl)-4,4-dimethylcyclohex-1-en-1-yl]methyl}piperazin-1-yl)-N-({3-nitro-4-[(tetrahydro-2H-pyran-4-ylmethyl)amino]phenyl}sulfonyl)-2-(1H-pyrrolo[2,3-b]pyridin-5-yloxy)benzamide]
sensitivity of cell lines to single agent (AML cell lines [3]): resistant | sensitivity of primary AML sample (primary AML blasts): resistant | Bax Mean. Res (AML cell lines [1]; [6]): 0.958 | Bcl-2 Mean. Res (AML cell lines [1]; [6]): 0.817 | Bim Mean. Res (AML cell lines [1]; [6]): 1.143 | PTEN (S380) Mean. Res (AML cell lines [1]; [6]): 0.839 | PTEN Mean. Res (AML cell lines [1]; [6]): 0.704 | S6 (S240/244) Mean. Res (AML cell lines [1]; [6]): 1.918 | bRaf (T401) Mean. Res (AML cell lines [1]; [6]): 1.263 | p16INK4a Mean. Res (AML cell lines [1]; [6]): 1.989 | Bax Mean. Sens (AML cell lines [1]; [7]): 1.227 | Bcl-2 Mean. Sens (AML cell lines [1]; [7]): 1.081 | Bim Mean. Sens (AML cell lines [1]; [7]): 0.811 | PTEN (S380) Mean. Sens (AML cell lines [1]; [7]): 1.369 | PTEN Mean. Sens (AML cell lines [1]; [7]): 1.495 | S6 (S240/244) Mean. Sens (AML cell lines [1]; [7]): 1.571 | bRaf (T401) Mean. Sens (AML cell lines [1]; [7]): 0.927 | p16INK4a Mean. Sens (AML cell lines [1]; [7]): 1.593 | Bcl-2:BIM complex (Bcl-2:BIM complex; AML cell lines): disrupted by venetoclax in most cell lines | leukemia burden by bioluminescent imaging (MOLM13-luci-GFP cells): significantly reduced leukemia burden
